Legend:
Type in all cases: in vivo, human
[1] = tested on: patients with Cocaine Use Disorder (CUD); test: Phase 2 trial: quantitative urine measurement of benzoylecgonine (BE); conditions: 98-day administration, P=0.025
Protocol: (§1) This study was conducted in patients with CUD and consisted of about a 21-day screening period followed by a 7-day baseline period, a 98-day outpatient treatment period, and an end of study visit evaluation about 14 days after the last study drug administration ([…]. A). Study treatment was taken twice daily (separated by about 12-hour intervals) with food. For patients in the mavoglurant arm [mavoglurant (free form) provided as modified release formulation (e.g. in WO2014/199316)], an uptitration regimen was performed for 14 days (50 mg b.i.d. from Days 1 to 7 and 100 mg b.i.d from Days 8 to 14) and was followed by 200 mg b.i.d for 84 days.
The primary endpoint was the proportion of cocaine use days during the treatment period, assessed by timeline followback [TLFB] cocaine self-report report. The secondary endpoints included a weekly urine analysis for a log-transformed quantitative measure of cocaine metabolite benzoylecgonine (BE), safety assessments (clinical parameters, suicidal ideation, adverse events [AE] and serious adverse events [SAE] at every visit), and pre- and post-dose levels of mavoglurant in the plasma. […]
Two urine samples per week provided a log-transformed quantitative measure of BE (cocaine's metabolite). […]

[2] = tested on: patients with Cocaine Use Disorder (CUD); test: Phase 2 trial: Clinical Global Impression (CGI) improvement; conditions: P<0.001
Protocol: as §1
The primary endpoint was the proportion of cocaine use days during the treatment period, assessed by timeline followback [TLFB] cocaine self-report report. The secondary endpoints included a weekly urine analysis for a log-transformed quantitative measure of cocaine metabolite benzoylecgonine (BE), safety assessments (clinical parameters, suicidal ideation, adverse events [AE] and serious adverse events [SAE] at every visit), and pre- and post-dose levels of mavoglurant in the plasma. Exploratory endpoints included Clinical Global Impression (CGI; 2 components: CGI-S [rated illness severity], CGI-I [rated change from baseline]).
Observer Reported Outcome: • 1. […]

[3] = tested on: patients with Cocaine Use Disorder (CUD); test: Phase 2 trial: abstinence in the last weeks of treatment (TLFB and negative urine BE); conditions: self-report (TLFB) and negative urine BE; placebo 16.7%; P=0.040
Protocol: as §1
A subject was considered abstinent the last x weeks of treatment if they completed the 14-week treatment period and were abstinent the last x weeks (with x=1, 2, 3. . . . , 14).
A subject was considered abstinent the last x weeks of treatment if they completed the 14-week treatment period and were abstinent the last x weeks (with x=1, 2, 3. . . . , 14). […] Binary response variables based on abstinence were calculated.
This analysis was added in order to inform on abstinence rates as this is an important endpoint in Phase III CUD studies. Binary response variables based on abstinence were calculated.

[4] = tested on: patients with Cocaine Use Disorder (CUD); test: Phase 2 trial: hair analysis; conditions: end of study vs baseline; compared to placebo
Protocol: Hair analysis was used as an adjunct to urine samples collection and helps document drug use history. Hair specimens were collected and at baseline and at the end of the study. Patients with hair shorter than 3 cm or bleached and/or dyed hair (proximal 4 cm) were excluded from this assessment. If only the tip of long hairs were bleached, samples were collected.
The quantitative measures were log-transformed and individual ratio between end of study and baseline was calculated and listed by treatment, subject and visit/time. The log-transformed data profiles over time were explored, compared between treatment groups and the relationship between cocaine and alcohol measures in hair, in urine and timeline follow-back was assessed.
Summary statistics were provided by treatment and visit/time. Heatmaps to visualize the trend in the log-transformed quantitative measures were created. To explore the relationship between the log-transformed quantitative measures of the compounds being assayed and the timeline follow-back cocaine and alcohol measures, scatterplots were created for the end of study results. […]
To ensure that the hair analysis quantitative parameters only had numerical values, censored values were imputed as follows • Values below the LLOQ were replaced by LLOQ/2. • Values above the ULOQ were replaced by ULOQ.

Q: With `COC(=O)N1CC[C@@H]2[C@H]1CCC[C@@]2(O)C#Cc1cccc(C)c1` [mavoglurant, (-)-(3aR,4S,7aR)-4-Hydroxy-4-m-tolylethynyl-octahydro-indole-1-carboxylic acid methyl ester] as the compound, how does the “cocaine consumption as assessed by urine benzoylecgonine (BE) vs placebo” value [1] read?
A: significantly lower levels of BE in urine

Q: What about the “cocaine consumption as assessed by urine benzoylecgonine (BE) vs placebo” value ([1]; listed as Mavoglurant) of the same compound?
A: significantly reduced cocaine consumption

Q: What about the “clinical improvement by CGI vs placebo (result in words)” value ([2]; CGI-I improvement from baseline) of the same compound?
A: significantly enhanced clinical improvement

Q: What about the “CGI 'very much' and 'much' improved, patients” value ([2]; Day 98, placebo 46.6%) of the same compound?
A: 90.9%

Q: What about the “proportion of patients with cocaine abstinence in the last 3 weeks of the study” value [3] of the same compound?
A: 41.4%

Q: What about the “hair analysis: cocaine and metabolite, change from baseline” value [4] of the same compound?
A: higher reductions from baseline as compared to placebo

— US20240050408A1, “USE OF MGLUR5 ANTAGONISTS FOR TREATING AMPHETAMINE ADDICTION” (NOVARTIS AG, priority 2020, published 2024)
